Experimental findings from patent US12441743B2, “Spiro aromatic ring compound and use thereof” (Etern Biopharma (Shanghai) Co., Ltd., priority 2018, dated 2025) are described below.

One data set deals with T1, SHP2 E76A protein (Homo sapiens, UniProt Q06124, E76A).
T1 sequence (Q06124 1-593 E76A): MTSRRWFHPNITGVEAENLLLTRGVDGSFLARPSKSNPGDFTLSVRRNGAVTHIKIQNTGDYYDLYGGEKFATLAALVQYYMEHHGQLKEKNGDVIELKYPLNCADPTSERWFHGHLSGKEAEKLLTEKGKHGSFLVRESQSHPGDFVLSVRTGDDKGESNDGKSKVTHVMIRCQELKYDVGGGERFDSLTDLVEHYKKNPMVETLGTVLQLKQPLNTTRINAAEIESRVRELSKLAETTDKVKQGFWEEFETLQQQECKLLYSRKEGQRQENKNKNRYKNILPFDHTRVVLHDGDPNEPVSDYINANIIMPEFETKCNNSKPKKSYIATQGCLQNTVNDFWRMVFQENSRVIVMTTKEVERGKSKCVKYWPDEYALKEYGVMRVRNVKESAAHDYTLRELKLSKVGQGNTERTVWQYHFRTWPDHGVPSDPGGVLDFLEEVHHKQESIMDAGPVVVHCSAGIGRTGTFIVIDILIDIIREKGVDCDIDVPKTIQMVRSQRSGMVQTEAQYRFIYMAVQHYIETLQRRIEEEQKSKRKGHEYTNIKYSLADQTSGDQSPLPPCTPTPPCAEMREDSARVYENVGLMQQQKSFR
As to the kind of experiment: SHP2 enzyme activity inhibition test (DiFMUP substrate, fluorescence). The conditions noted are these: 50 ng SHP2 E76A, 20 min with compound, then 10 uM DiFMUP 20 min at room temperature. Format: biochemical.

The subject of the next data set is MV4-11 cells. As to the kind of experiment: MV4-11 cell proliferation inhibition experiment (CellTiter-Glo). Format: cell-based. To be noted: Homo sapiens, read-out: Cell proliferation inhibition activity. Here is the method:
The number of living cells in the culture was determined by quantitative determination of intracellular ATP using CellTiter-Glo® Luminescent Cell Viability Assay kit.
In the first step, MV4-11 cells were inoculated into 96-well plates with a density of 2500 cells per well and a volume of 100 μL per well. The plates were placed in 37° C., 5% carbon dioxide incubator overnight.
In the second step, cells were treated with compounds. The compounds to be tested were diluted 3 times, and 8 concentration gradients were set up. Each well was added with a certain volume of DMSO or the compound to be tested, and each concentration was tested in 2 replicates, and the final concentration of DMSO was 0.5%. The plates were placed in 37° C., 5% carbon dioxide incubator for 72 h.
In the third step, cell viability of the control groups and the treatment groups was determined using CellTiter-Glo® Luminescent Cell Viability Assay kit (Promega, G7570). Each well was added with 50 uL CellTiter-Glo. The culture was mixed well, and incubated at room temperature for 10 min. Signals were read using EnSpire (Perkin Elmer). Inhibition percentages (%) were calculated by the following formula:
Inhibition percentage (%)=(1−signal value of compound treatment group/signal value of DMSO treatment group)*100.
For orientation: Cellular ATP, detected with luciferase, serves as a proxy for viable cell number.

Data set [1] is described as follows: Pharmacokinetics experiment, intragastric single dose. It is filed as in vivo. The conditions noted are these: mouse, plasma, male mice, oral administration dosage 5 mg/Kg; for half-life: read-out: Half-life T1/2 (converted); for Cmax: read-out: Maximum plasma concentration Cmax; for AUC: read-out: Plasma exposure AUC. Here is the method: Pharmacokinetics of the compound of the disclosure was determined. The following method was used to determine the pharmacokinetic parameters of the compound of the disclosure. Healthy male adult mice were used in the study. Each group was intragastrically administered with a single dose of 5-100 mg/kg. Fasting lasted from 10 hours before administration to 4 hours after administration. Blood samples were collected at different time points after administration and the compound content in plasma was determined by LC-MS/MS. The relationship between plasma concentration and time was analyzed by professional software (winnonlin), and the pharmacokinetic parameters of the compounds were calculated. According to Table 3, the compounds of the disclosure have excellent pharmacokinetic properties.

[2] abbreviates: MV4-11 cells, 72 h, CellTiter-Glo.

pIC50: −log10 of the molar value. Where two headings read alike, the source gives them in different places.

As to `Nc1nccc(Sc2cnc(N3CCC4(CC3)Cc3nccnc3[C@H]4N)n3cnnc23)c1Cl` [Compound 20, (S)-1′-(8-((2-amino-3-chloropyridin-4-yl)thio)-[1,2,4]triazolo[4,3-c]pyrimidin-5-yl)-5,7-dihydrospiro[cyclopenta[b]pyrazine-6,4′-piperidine]-5-amine], the pIC50 on SHP2 E76A protein is 8.22.
The bioavailability is dose-corrected exposure relative to a reference, in per cent. A low value points to poor availability. Broadly, the AUC is concentration integrated over time. As to `Nc1nccc(Sc2cnc(N3CCC4(CC3)Cc3ccccc3[C@H]4N)n3ccnc23)c1Cl` [Compound 4, (S)-1′-(8-((2-amino-3-chloropyridin-4-yl)thio)imidazolo[1,2-c]pyrimidin-5-yl)-1,3-dihydrospirolindene-2,4′-piperidinel-1-amine], the pIC50 on SHP2 E76A protein is 8.15. In addition, in the data set with MV4-11 cells (setting [2]), the pIC50 is 8.15. Moreover, in data set [1], the bioavailability came out at 34%, the half-life is 5.4 h, the Cmax was 7 µM and the AUC came to 29 µM·h.
Take `N[C@@H]1c2cccnc2CC12CCN(c1ncc(Sc3ccnc4c3CCO4)c3nccn13)CC2` [Compound 1]: the pIC50 is 7.96 at SHP2 E76A protein and 7.17 with MV4-11 cells (MV4-11, 72 h).
`Nc1nccc(Sc2cnc(N3CCC4(CC3)Cc3sc(Cl)nc3[C@H]4N)n3ccnc23)c1Cl` [Compound 22]: the pIC50 at SHP2 E76A protein is 8.05.
With `N[C@@H]1c2ncccc2CC12CCN(c1ncc(Sc3cccnc3C(F)(F)F)c3nncn13)CC2` [Compound 21, (S)-1′-(8-((2-(trifluoromethyl)pyridin-3-yl)thio)-[1,2,4]-triazolo[4,3-c]pyrimidin-5-yl)-5,7-dihydrospiro[cyclopenta[b]pyridine-6,4′-piperidine]-7-amine], the pIC50 on SHP2 E76A protein was 7.96.
`Nc1nccc(Sc2cnc(N3CCC4(CC3)Cc3ccccc3[C@H]4N)n3cnnc23)c1Cl` [Compound 2]: the pIC50 on SHP2 E76A protein was 8.40; in the data set with MV4-11 cells (setting [2]), 7.96.
As for `Nc1nccc(Sc2cnc(N3CCC4(CC3)Cc3ccncc3[C@H]4N)n3ccnc23)c1Cl` [Compound 8, (S)-1′-(8-((2-amino-3-chloropyridin-4-yl)thio)imidazo[1,2-c]pyrimidin-5-yl)-5,7-dihydrospiro[cyclopenta[c]pyridine-6,4′-piperidine]-7-amine], the pIC50 at SHP2 E76A protein was 8.00; in the data set with MV4-11 cells (setting [2]) it was 7.48.
Turning to `Nc1nccc(Sc2cnc(N3CCC4(CC3)Cc3ccc(F)cc3[C@H]4N)n3ccnc23)c1Cl` [Compound 13, (S)-1′-(8-((2-amino-3-chloropyridin-4-yl)thio)imidazo[1,2-c]pyrimidin-5-yl)-6-fluoro-1,3-dihydrospirolindene-2,4′-piperidinel-1-amine], the pIC50 on SHP2 E76A protein and in the data set with MV4-11 cells (setting [2]) was 9.00 each time.
`Nc1nccc(Sc2cnc(N3CCC4(CC3)Cc3c(O)cccc3[C@H]4N)n3cnnc23)c1Cl` [Compound 16, (S)-1-amino-1′-(8-((2-amino-3-chloropyridin-4-yl)thio)-[1,2,4]triazolo[4,3-c]pyrimidin-5-yl)-1,3-dihydrospiro[indene-2,4′-piperidin]-4-ol]: the pIC50 on SHP2 E76A protein was 8.70; in the data set on MV4-11 cells (MV4-11, 72 h) it was 7.28.
On to `Nc1nccc(Sc2cnc(N3CCC4(CC3)Cc3ccncc3[C@H]4N)n3cnnc23)c1Cl` [Compound 7, (5)-1′-(8-((2-amino-3-chloropyridin-4-yl)thio)-[1,2,4]triazolo[4,3-c]pyrimidin-5-yl)-5,7-dihydrospiro[cyclopenta[c]pyridine-6,4′-piperidine]-7-amine], for which the pIC50 on SHP2 E76A protein was 8.52. Also, the pIC50 in the data set with MV4-11 cells (setting [2]) is 7.54. Also, in data set [1], the bioavailability turned out to be 98%, the half-life is 3 h, the Cmax stood at 7.5 µM and the AUC was 43 µM·h.
`N#Cc1cccc2c1CC1(CCN(c3ncc(Sc4ccnc(N)c4Cl)c4nncn34)CC1)[C@@H]2N` [Compound 17, (S)-1-amino-1′-(8-((2-amino-3-chloropyridin-4-yl)thio)-[1,2,4]triazolo[4,3-c]pyrimidin-5-yl)-1,3-dihydrospiro[indene-2,4′-piperidine]-4-nitrile]: the results for the pIC50 at SHP2 E76A protein and with MV4-11 cells (setting [2]) were 8.00 and 7.46, respectively.
On the same counts, the results for `Nc1nccc(Sc2cnc(N3CCC4(CC3)Cc3cnccc3[C@H]4N)n3ccnc23)c1Cl` [Compound 14, (S)-1′-(8-((2-amino-3-chloropyridin-4-yl)thio)imidazo[1,2-c]pyrimidin-5-yl)-5,7-dihydrospiro[cyclopenta[c]pyridine-6,4′-piperidine]-5-amine] are 8.10 and 7.44.
On to `N[C@@H]1c2cccnc2CC12CCN(c1ncc(Sc3ccnc4[nH]ncc34)c3nccn13)CC2` [Compound 23], for which, at SHP2 E76A protein, the pIC50 was 8.05.
Turning to `CNc1nccc(Sc2cnc(N3CCC4(CC3)Cc3ncccc3[C@H]4N)n3ccnc23)c1Cl` [Compound 5, (S)-1′-(8-((3-chloro-2-(methylamino)pyridin-4-yl)thio)imidazo[1,2-c]pyrimidin-5-yl)-5,7-dihydrospiro[cyclopenta[b]pyridine-6,4′-piperidine]-5-amine], the pIC50 on SHP2 E76A protein was 8.30; in the data set on MV4-11 cells (MV4-11, 72 h) it was 8.22.
Turning to `Nc1nccc(Sc2cnc(N3CCC4(CC3)Cc3cnccc3[C@H]4N)n3cnnc23)c1Cl` [Compound 15, (S)-1′-(8-((2-amino-3-chloropyridin-4-yl)thio)-[1,2,4]triazolo[4,3-c]pyrimidin-5-yl)-5,7-dihydrospiro[cyclopenta[c]pyridine-6,4′-piperidine]-5-amine], the pIC50 on SHP2 E76A protein was 8.52; in the data set with MV4-11 cells (setting [2]), 7.03.
On the same counts, the results for `C[C@@H]1OCC2(CCN(c3ncc(Sc4ccnc(N)c4Cl)n4nccc34)CC2)[C@@H]1N` [Positive control aa, reference compound] are 7.59 and 6.37.
On to `N[C@@H]1c2ncccc2CC12CCN(c1ncc(Sc3ccnc(Cl)c3Cl)c3nncn13)CC2` [Compound 9, (S)-1′-(8-(2,3-dichloropyridin-4-yl)thio-[1,2,4]-triazolo[4,3-c]pyrimidin-5-yl)-5,7-dihydrospiro[cyclopenta[b]pyridine-6,4′-piperidine]-7-amine], for which the pIC50 at SHP2 E76A protein was 8.15; in the data set on MV4-11 cells (MV4-11, 72 h) it was 7.22.
Consider `Nc1nccc(Sc2cnc(N3CCC4(CC3)Cc3cccnc3[C@H]4N)n3cnnc23)c1Cl` [Compound 11, (S)-1′-(8-((2-amino-3-chloropyridin-4-yl)thio)-[1,2,4]triazolo[4,3-c]pyrimidin-5-yl)-5,7-dihydrospiro[cyclopenta[b]pyridine-6,4′-piperidine]-7-amine], for which the pIC50 at SHP2 E76A protein was 9.00; in the data set on MV4-11 cells (setting [2]), 7.52.
Take `COc1cccc2c1CC1(CCN(c3ncc(Sc4ccnc(N)c4Cl)c4nncn34)CC1)[C@@H]2N` [Compound 19, (S)-1′-(8-((2-amino-3-chloropyridin-4-yl)thio)-[1,2,4]triazolo[4,3-c]pyrimidin-5-yl)-4-methoxy-1,3-dihydrospiro[indene-2,4′-piperidine]-1-amine]: the pIC50 was 8.15 at SHP2 E76A protein and 9.00 with MV4-11 cells (setting [2]).
On the same counts, the results for `Nc1nccc(Sc2cnc(N3CCC4(CC3)Cc3ncccc3[C@H]4N)n3cnnc23)c1Cl` [Compound 3, (S)-1′-(8-((2-amino-3-chloropyridin-4-yl)thio)-[1,2,4]triazolo[4,3-c]pyrimidin-5-yl)-5,7-dihydrospiro[cyclopenta[b]pyridine-6,4′-piperidine]-5-amine] are 7.96 and 7.00.
As to `Nc1nccc(Sc2cnc(N3CCC4(CC3)Cc3ccc(F)cc3[C@H]4N)n3cnnc23)c1Cl` [Compound 12, (S)-1′-(8-((2-amino-3-chloropyridin-4-yl)thio)-[1,2,4]triazolo[4,3-c]pyrimidin-5-yl)-6-fluoro-1,3-dihydrospiro[indene-2,4′-piperidine]-1-amine], the pIC50 at SHP2 E76A protein is 8.70; in the data set with MV4-11 cells (setting [2]), 7.52.
